Assay results as given in ChEMBL document CHEMBL1201862, “PubChem BioAssay data set” (2004).
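Values below derive from 48-hour exposures of cells grown in 96-well plates, with endpoints linearly interpolated between the two concentrations bracketing the appropriate inhibition level. The concentration for 50% growth inhibition is given as GI50.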 Activity calls are given as the source filed them. Rule as the data show it: active = GI50 up to about 1.1 µM and inactive = higher.

Columns and labels:
Assay in all cases: NCI anticancer screen, dose series, 48 h
[1] = tested on: CCRF-CEM
[2] = tested on: EKVX
[3] = tested on: HCC 2998
[4] = tested on: HCT-116
[5] = tested on: HCT-15
[6] = tested on: IGROV-1
[7] = tested on: KM12
[8] = tested on: LOX IMVI
[9] = tested on: MOLT-4
[10] = tested on: Malme-3M
[11] = tested on: NCI-H460
[12] = tested on: OVCAR-8
[13] = tested on: RXF 393
[14] = tested on: SF-268
[15] = tested on: SF-295
[16] = tested on: SK-OV-3
[17] = tested on: SW-620
[18] = tested on: TK-10
[19] = tested on: U-251
[20] = tested on: CAKI-1

CC(C)(C)CI
GI50 [1]: 21.4 µM (inactive)
GI50 [2]: 61.5 µM (inactive)
GI50 [3]: 19.4 µM (inactive)
GI50 [4]: 18.5 µM (inactive)
GI50 [5]: 33 µM
GI50 [6]: > 100 µM (inactive)
GI50 [7]: 25.7 µM (inactive)
GI50 [8]: 17.3 µM (inactive)
GI50 [9]: 37.2 µM (inactive)
GI50 [10]: 19.7 µM (inactive)
GI50 [11]: 27.9 µM (inactive)
GI50 [12]: > 10 µM (inactive)
GI50 [13]: 18.4 µM (inactive)
GI50 [14]: 33.7 µM (inactive)
GI50 [15]: 18.5 µM (inactive)
GI50 [16]: 48.4 µM (inactive)
GI50 [17]: 18.1 µM (inactive)
GI50 [18]: > 100 µM (inactive)
GI50 [19]: 26.2 µM (inactive)

Cc1ccc(/C=C2\CN(C)CC3=C2N=C(S)NC3c2ccc(C)cc2)cc1 (configuration not stated)
GI50 [20]: > 100 µM (inactive)
GI50 [1]: 30.1 µM (inactive)
GI50 [2]: 41.8 µM (inactive)
GI50 [3]: 41.5 µM (inactive)
GI50 [4]: 21.8 µM (inactive)
GI50 [5]: 31.8 µM
GI50 [6]: 47.2 µM (inactive)
GI50 [7]: 15.4 µM (inactive)
GI50 [8]: 30.3 µM (inactive)
GI50 [10]: 47.3 µM (inactive)
GI50 [11]: 37.6 µM (inactive)
GI50 [12]: 25.5 µM (inactive)
GI50 [13]: 31.6 µM (inactive)
GI50 [14]: 44.4 µM (inactive)
GI50 [15]: 36.9 µM (inactive)
GI50 [16]: > 100 µM (inactive)
GI50 [17]: 61.2 µM (inactive)
GI50 [18]: 0.341 µM (active)
GI50 [19]: 42.8 µM (inactive)

COc1cc(Nc2nc3cc(C(F)(F)F)ccc3n3cccc23)cc(OC)c1OC
GI50 [20]: > 100 µM (inactive)
GI50 [1]: 4.54 µM (inactive)
GI50 [2]: > 100 µM (inactive)
GI50 [3]: > 100 µM (inactive)
GI50 [4]: > 100 µM (inactive)
GI50 [5]: > 100 µM
GI50 [6]: > 100 µM (inactive)
GI50 [9]: 8.49 µM (inactive)
GI50 [10]: > 100 µM (inactive)
GI50 [12]: > 100 µM (inactive)
GI50 [13]: 3.93 µM (inactive)
GI50 [14]: > 100 µM (inactive)
GI50 [15]: 5.02 µM (inactive)
GI50 [16]: > 100 µM (inactive)
GI50 [17]: > 100 µM (inactive)
GI50 [18]: > 100 µM (inactive)
GI50 [19]: > 100 µM (inactive)

N=c1oc2c(Cl)cc(Cl)cc2cc1C(=O)Nc1ccccn1
GI50 [20]: > 100 µM (inactive)
GI50 [1]: 22 µM (inactive)
GI50 [2]: 67.3 µM (inactive)
GI50 [3]: 81.5 µM (inactive)
GI50 [4]: 41.1 µM (inactive)
GI50 [5]: 34.8 µM
GI50 [7]: 13.9 µM (inactive)
GI50 [9]: 8.24 µM (inactive)
GI50 [10]: > 100 µM (inactive)
GI50 [11]: 48.3 µM (inactive)
GI50 [13]: 19.8 µM (inactive)
GI50 [14]: 33 µM (inactive)
GI50 [15]: 54.7 µM (inactive)
GI50 [16]: 67.5 µM (inactive)
GI50 [17]: 43.6 µM (inactive)
GI50 [18]: 34.5 µM (inactive)
GI50 [19]: 37.2 µM (inactive)

COc1ccc(CNc2nc3cc(C(F)(F)F)ccc3nc2C)cc1OC
GI50 [20]: 33 µM (inactive)
GI50 [1]: 31.9 µM (inactive)
GI50 [2]: 20.2 µM (inactive)
GI50 [3]: 17.9 µM (inactive)
GI50 [4]: 26.2 µM (inactive)
GI50 [5]: 34.8 µM
GI50 [6]: 31 µM (inactive)
GI50 [7]: 23.7 µM (inactive)
GI50 [8]: 24.9 µM (inactive)
GI50 [9]: 17.3 µM (inactive)
GI50 [10]: 20.1 µM (inactive)
GI50 [11]: 30.1 µM (inactive)
GI50 [12]: 30.3 µM (inactive)
GI50 [14]: 33.3 µM (inactive)
GI50 [15]: 34.4 µM (inactive)
GI50 [16]: 36.7 µM (inactive)
GI50 [17]: 37.9 µM (inactive)
GI50 [18]: 24.3 µM (inactive)
GI50 [19]: 37 µM (inactive)

O=c1ccc2ccc(S)cc2o1
GI50 [20]: > 100 µM (inactive)
GI50 [2]: > 100 µM (inactive)
GI50 [3]: > 100 µM (inactive)
GI50 [4]: > 100 µM (inactive)
GI50 [5]: > 100 µM
GI50 [6]: > 100 µM (inactive)
GI50 [7]: > 100 µM (inactive)
GI50 [8]: > 100 µM (inactive)
GI50 [9]: 42 µM (inactive)
GI50 [10]: > 100 µM (inactive)
GI50 [11]: > 100 µM (inactive)
GI50 [12]: > 100 µM (inactive)
GI50 [13]: > 100 µM (inactive)
GI50 [14]: > 100 µM (inactive)
GI50 [15]: > 100 µM (inactive)
GI50 [16]: > 100 µM (inactive)
GI50 [17]: > 100 µM (inactive)
GI50 [18]: 92.5 µM (inactive)
GI50 [19]: > 100 µM (inactive)

N#CC(NC12CC3CC(CC(C3)C1)C2)c1ccccc1C(F)(F)F (configuration not stated)
GI50 [20]: > 100 µM (inactive)
GI50 [1]: > 100 µM (inactive)
GI50 [2]: > 100 µM (inactive)
GI50 [3]: > 100 µM (inactive)
GI50 [4]: > 100 µM (inactive)
GI50 [5]: > 100 µM
GI50 [7]: > 100 µM (inactive)
GI50 [8]: > 100 µM (inactive)
GI50 [9]: > 100 µM (inactive)
GI50 [10]: > 100 µM (inactive)
GI50 [11]: > 100 µM (inactive)
GI50 [12]: > 100 µM (inactive)
GI50 [13]: > 100 µM (inactive)
GI50 [14]: > 100 µM (inactive)
GI50 [17]: > 100 µM (inactive)
GI50 [18]: > 100 µM (inactive)

Cc1c2ccnc(C(F)(F)F)c2cc2c1[nH]c1ccccc12
GI50 [20]: > 125 µM (inactive)
GI50 [1]: > 125 µM (inactive)
GI50 [2]: > 125 µM (inactive)
GI50 [3]: > 125 µM (inactive)
GI50 [4]: > 125 µM (inactive)
GI50 [5]: > 125 µM
GI50 [6]: > 125 µM (inactive)
GI50 [7]: 121 µM (inactive)
GI50 [8]: > 125 µM (inactive)
GI50 [9]: 85.1 µM (inactive)
GI50 [10]: 98.2 µM (inactive)
GI50 [11]: 123 µM (inactive)
GI50 [12]: 110 µM (inactive)
GI50 [13]: 16.6 µM (inactive)
GI50 [14]: 101 µM (inactive)
GI50 [15]: 23.2 µM (inactive)
GI50 [16]: 36.3 µM (inactive)
GI50 [17]: > 125 µM (inactive)
GI50 [19]: > 125 µM (inactive)

COc1cc2nc(-c3cccc(N(C)C)c3)cc(O)c2cc1OC
GI50 [1]: 3.87 µM (inactive)
GI50 [2]: 16.5 µM (inactive)
GI50 [3]: 2.39 µM (inactive)
GI50 [4]: 4.8 µM (inactive)
GI50 [5]: 2.99 µM
GI50 [6]: 7.11 µM (inactive)
GI50 [7]: 3.31 µM (inactive)
GI50 [8]: 6.79 µM (inactive)
GI50 [9]: 5.19 µM (inactive)
GI50 [10]: 2.23 µM (inactive)
GI50 [11]: 3.94 µM (inactive)
GI50 [12]: 6.03 µM (inactive)
GI50 [13]: 2.21 µM (inactive)
GI50 [14]: 16.6 µM (inactive)
GI50 [15]: 2.58 µM (inactive)
GI50 [16]: 3.7 µM (inactive)
GI50 [17]: 4.09 µM (inactive)
GI50 [18]: > 100 µM (inactive)

CC(=O)O[C@H]1C(=O)[C@@]2(C)[C@H]([C@H](OC(=O)c3cccc([N+](=O)[O-])c3)[C@]3(O)C[C@H](OC(=O)[C@H](O)[C@@H](NC(=O)c4ccccc4)c4ccccc4)C(C)=C1C3(C)C)[C@]1(OC(C)=O)CO[C@@H]1C[C@@H]2O
GI50 [20]: 0.241 µM (active)
GI50 [1]: 0.00479 µM (active)
GI50 [2]: 2.78 µM (inactive)
GI50 [3]: 0.00762 µM (active)
GI50 [4]: 0.00533 µM (active)
GI50 [5]: 0.438 µM
GI50 [6]: 0.00783 µM (active)
GI50 [7]: 0.0047 µM (active)
GI50 [8]: 0.00558 µM (active)
GI50 [9]: 0.00509 µM (active)
GI50 [11]: 0.00601 µM (active)
GI50 [12]: 0.00785 µM (active)
GI50 [13]: 0.0133 µM (active)
GI50 [14]: 0.021 µM (active)
GI50 [15]: 0.0155 µM (active)
GI50 [16]: 0.00703 µM (active)
GI50 [17]: 0.00706 µM (active)
GI50 [18]: 0.0495 µM (active)
GI50 [19]: 0.00681 µM (active)

Cc1c(C#N)c2nnn(C)c(=O)n2c1-c1ccccc1
GI50 [20]: > 100 µM (inactive)
GI50 [1]: 64.1 µM (inactive)
GI50 [2]: 56 µM (inactive)
GI50 [3]: > 100 µM (inactive)
GI50 [5]: > 100 µM
GI50 [7]: 57.1 µM (inactive)
GI50 [11]: > 100 µM (inactive)
GI50 [12]: 48.2 µM (inactive)
GI50 [13]: > 100 µM (inactive)
GI50 [14]: > 100 µM (inactive)
GI50 [15]: 51.6 µM (inactive)
GI50 [16]: > 100 µM (inactive)
GI50 [17]: > 100 µM (inactive)
GI50 [18]: > 100 µM (inactive)
GI50 [19]: > 100 µM (inactive)
